Values quoted from earlier work in US5462964A, “Dipeptide boronic acid inhibitors of trypsin-like enzymes” (The Du Pont Merck Pharmaceutical Company, priority 1993, dated 1995).
Each block holds one compound with its values, some of them ahead of it.

Legend:
thrombin [1] = target: T1, thrombin (Homo sapiens, UniProt P00734); conditions: reversible inhibitor of thrombin; literature / EP 293 881
thrombin [2] = target: T1, thrombin; conditions: Kettner and Shaw Thromb. Res. 14, 969 (1979)
blood coagulation = conditions: both in vitro and in vivo; EP 293 881
chymotrypsin = chymotrypsin (Bos taurus, UniProt P00766); conditions: Matteson et al. J. Am. Chem. Soc. 103, 5241 (1981)

Ki (thrombin [1]): 75 nM
Structure (SMILES): CC(=O)N[C@H](Cc1ccccc1)C(=O)N1CCC[C@H]1C(=O)N[C@H](C=O)CCCNC(=N)N [Ac-D-Phe-Pro-Arg-H]

Structure (SMILES): CC(=O)NC(Cc1ccccc1)C(=O)N1CCCC1C(=O)NC(CCCNC(=N)N)C(=O)CCl [Ac-D-Phe-Pro-ArgCH2 Cl]
inhibitor of human thrombin (thrombin [2]): potent and selective irreversible inhibitor

Structure (SMILES): CC(=O)N[C@H](Cc1ccccc1)C(=O)N1CCC[C@H]1C(=O)N[C@@H](CCCN=C(N)N)B(O)O [Ac-D-Phe-Pro-boroArgOH]
inhibition of blood coagulation (blood coagulation): highly effective

Ki (chymotrypsin): 4000 nM
Structure (SMILES): CC(=O)N[C@@H](Cc1ccccc1)B(O)O [Ac-boroPhe-OH, (R)-1-acetamido-2-phenylethane boronic acid]
